A short description of one series: physchem. The settings on record: organic solvent or mixture, thermodynamic from solid.
The nature of series [1]: Solubility of poorly water-soluble APIs in propylene carbonate. Particulars: organic solvent or mixture, thermodynamic from solid, solvent added in 10 μl steps to about 20 mg, mean of three samples. Type of series: physicochemical. As to the method:
For a preliminary analysis, 1-2 mg of each compound was weighted in an Eppendorf tube and 1 ml propylene carbonate was added. The mixture was mixed with a metal spatula for 10 min each. The solubility of compounds, which were fully dissolved in the preliminary tests where than further analyzed. About 20 mg of each compound were used and under stirring with a metal spatula propylene carbonate was added in 10 μl steps.

Series [2] in a line: Biphasic dissolution test (BiPHa+). In kind it is in vitro ADME. An excerpt: This approach was chosen to simulate the gastrointestinal properties to obtain in vivo predictive results.
The transition to the organic phase can be understood as absorption of active substances into the blood.
To simulate the gastrointestinal properties to obtain in vivo predictive results, the pH-profile, bile salt concentration and gastrointestinal passage time were adjusted in the aqueous phase to mimic human gut conditions. An organic phase of 1-decanol above the aqueous phase imitated the fraction absorbed from the gut. As a test model, the profile of a person without prior food intake was chosen. Therefore, FaSSIF-V2 medium, which represents the bile salts concentration of a fasted human was used. […] To generate an in-situ biorelevant aqueous medium for the fasted state, biorelevant surfactants, namely sodium-taurocholate (3 mM) and lecithin (0.2 mM), were added.
Prior to the start of the experiments, both phases, 1-decanol and the acidic aqueous phase, were saturated with each other. First, the respective formulation was added (Table 2) to 50 mL HCl (0.1 M), simulating the stomach. During the first 30 min the formulation disintegrated/dispersed in 50 ml of 0.1 M HCl. After 30 min FaSSIF-V2 concentrate (sodium-taurocholate and lecithin) was added simultaneously to the addition of citrate-phosphate buffer (tri-potassium phosphate and potassium citrate) resulting in a first pH-shift from pH 1 to pH 5.5, simulating the duodenum. Thereafter, 50 mL 1-decanol was added. […] The adjusted buffers were titrated by 0.1 M NaOH and 0.1 M HCl (pH 5.5-6.8). The whole dissolution took 4.5 hours.
For each compound, the biphasic dissolution test was performed in triplicate. In order to evaluate the liquisolid formulations in terms of their performance, each liquisolid formulation was compared to a respective commercially available formulation.
The market formulations (Originator) of the selected APIs were tested additionally to compare the performance against established marked products.

≈ marks a conversion by molar mass, not a printed value. Counter-ions that a name gives are not always drawn.

Protocol for physchem: Therefore, 1 mg of each compound was weighted in an Eppendorf tube and 1 ml of solvent was added. The mixture was mixed with a metal spatula for 10 min each. […] About 20 mg of each compound were used and under stirring with a metal spatula the solvent was added in 10 μl steps.

What is called solubility is how much of the substance goes into solution per volume. For `COCCOC(=O)C1=C(C)NC(C)=C(C(=O)OC(C)C)C1c1cccc([N+](=O)[O-])c1` (stereo not drawn) [Nimodipine], the solubility at 10 min in the series “physchem” is less than 1 mg/mL. In addition, the solubility in series [1] amounted to 144 mg/mL (≈ 345 mM).
For the compound `CN(C)CCCN1c2ccccc2CCc2ccccc21` [Imipramine hydrochloride], the solubility in series [1] was 167 mg/mL.
Take `CN1CCN(C2=Nc3cc(Cl)ccc3Nc3ccccc32)CC1` [Clozapine]: the solubility in series [1] was found to be 4.79 mg/mL (≈ 14.7 mM).
Take `Cc1ccc(-c2cc(C(F)(F)F)nn2-c2ccc(S(N)(=O)=O)cc2)cc1` [Celecoxib]: the solubility at 10 min in “physchem” (glycerol) is less than 1 mg/mL. For the same compound, the solubility amounted to 230 mg/mL (≈ 603 mM) in “physchem” (polyethylene glycol 400 (PEG 400)), 60.3 mg/mL (≈ 158 mM) in the series “physchem” (propylene glycol (PG)), 244 mg/mL (≈ 641 mM) in “physchem” (tetraglycole (TEG)) and 267 mg/mL (≈ 699 mM) in series [1]. Also, the “Maximum Partitioned Drug in the Organic Phase” value in series [2] (Market Formulation (Originator, Table 11)) was 41%; in series [2] (PC Silsol ® Formulation (propylene carbonate on mesoporous silica)) it was 54%; in series [2] (PEG 400 Silsol ® Formulation), 46%; in series [2] (TEG Silsol ® Formulation) it was 53%. The “result of propylene carbonate formulation compared to commercially available market formulation” value in series [2] (same in vitro biphasic dissolution conditions, in words) was “even better results”.
Turning to `CC(=O)Oc1ccc(C(c2ccc(OC(C)=O)cc2)c2ccccn2)cc1` [Bisacodyl], in series [1], the solubility was 91.5 mg/mL (≈ 253 mM).
For the compound `COC1=CC(=O)C[C@@H](C)[C@]12Oc1c(Cl)c(OC)cc(OC)c1C2=O` [Griseofulvin], the solubility in series [1] is 16.8 mg/mL (≈ 47.7 mM).
On the same count and under the same terms, as for `Cc1ccc(S(=O)(=O)NC(=O)NN2CC3CCCC3C2)cc1` (stereo not drawn) [Gliclazide], the figure is 32.3 mg/mL (≈ 99.8 mM); as for `COc1ccc2c(c1)c(CC(=O)O)c(C)n2C(=O)c1ccc(Cl)cc1` [Indomethacin], 17.2 mg/mL (≈ 48.1 mM).

Source of the values: US12728134B2, “Liquisolid pharmaceutical formulation and process for manufacturing” (RHEINISCHE FRIEDRICH-WILHELMS-UNIVERSITÄT BONN, priority 2020, dated 2026).
